“Also recorded” adds a separate entry of the source. Like-named read-outs stand apart in the source and are kept apart here.
Key:
parental cells DT40 = assay: Camptothecin-induced apoptosis (subdiploid DNA content, propidium iodide FACS) in parental DT40 cells; type: cell-based, Chicken; details: 15-25 nM, 72 hours
Protocol: (§1) Chicken parental B cell line DT40, a sub-line where ATPX was interrupted by means of homologous recombination and a derivative line where APTX was re-introduced in the knock-out cells were used (Abel I, et al., Nature 2006; 443: 713-6). Camptothecin-induced apoptosis was evaluated as has been previously described (Arango D, et al., Cancer Res 2001; 61: 4910-5; Arango D, et al., Br J Cancer 2003; 89: 1757-65). Briefly, 2.5×10^5 cells were seeded by triplicate in 6-well Falcon plates (Becton Dickinson) and were left to adhere for 24 hours before sucking out the medium and changing it with fresh medium containing 0, 15 or 25 nM camptothecin (Calbiochem, San Diego, Calif.). After 72 hours of treatment, both the adhered cells and those that floated were collected, they were washed two times with 2 ml of PBS, and resuspended in PBS containing 50 μg/ml propidium iodide, 0.1% sodium citrate, and 0.1% Triton X-100. The cells were stained overnight at 4° C. and the DNA content was analyzed using a cell separator (FACSCalibur; Becton Dickinson). The cell debris were discarded, and the proportion of cells with subdiploid DNA content typical of apoptotic cells was quantified using WinList 2.0 (Verity Software House, Inc.). All the experiments were carried out in triplicate, and the mean from three independent experiments is shown.

[1] = tested on: APTX knock-out cells DT40; assay: Camptothecin-induced apoptosis in DT40 sub-line with APTX inactivated by homologous recombination; type: cell-based, Chicken; details: 15-25 nM, 72 hours, p<0.004
Protocol: as §1

[2] = tested on: DT40 knock-out cells with APTX re-introduced; assay: Camptothecin-induced apoptosis in DT40 knock-out cells with APTX re-introduced; type: cell-based, Chicken; details: APTX knock-out DT40 cells with APTX reintroduced, 15-25 nM, 72 hours
Protocol: as §1

[3] = tested on: metastatic colorectal cancer; assay: Response, time to progression and survival of patients receiving irinotecan-based chemotherapy, by tumor aprataxin level; type: in vivo, human; details: for time to progression (TTP) median: irinotecan-based treatment
Protocol: A total of 135 patients with metastatic colorectal cancer receiving irinotecan-based chemotherapy in Hospital Universitario Vall d'Hebron were included in the study. The response to the chemotherapeutic treatment was evaluated by means of computerized axial tomography (CAT) and a response was considered complete when the complete disappearance of metastatic lesions was observed. […] A lesion size reduction observed by CAT greater than 30% or an increase above 20% were considered as partial response or progressive disease, respectively. The study was conducted according to the research protocols approved by the Clinical Research Ethics Committee.
After the histological examination of tumor sample sections stained with hematoxylin and eosin and fixed with formalin embedded in paraffin, areas containing a large proportion of tumor cells were selected from the 135 patients. Cores of 1.2 mm of tumor samples from each patient were arranged in duplicate in a new paraffin block using an apparatus for preparing tissue matrices from Beecher Instruments (Beecher Instruments, Silver Spring, Md.).
4 μm unstained sections of the tissue microarrays were mounted on slides coated with 3-aminopropyl-triethoxy-silane (Sigma, St. Louis, Mo., USA). The sections were deparaffinized in xylene and rehydrated by means of a gradual series of alcohol and distilled water. The antigen was recovered with preheated 10 mM pH=6 citrate buffer for 20 minutes at 95° C. For the immunohistochemical analysis, the commercial Novolink polymer detection system was used according to the manufacturer's instructions (Novocastra Laboratories; Newcastle, UK). A rabbit anti-aprataxin polyclonal antibody made against the C-terminus end of human aprataxin was used at a dilution 1:100 (4° C. overnight; Aviva Systems Biology Corp.; San Diego, Calif.). The staining was viewed using a solution of 3,3′-diaminobenzidine (DAB) and the sections were counter stained in Mayer's hematoxylin, washed in water, dehydrated through a series of ethanol solution, clarified in xylene and mounted. The aprataxin levels were evaluated without knowing the clinical data. A semi-quantitative scale from 0 to 3 was used to measure the staining intensity. The absence of aprataxin staining was graded as 0 and the low, moderate and high aprataxin levels were graded as 1, 2, and 3, respectively (see FIG. 2A-D). The mean grading of samples in duplicate was used in subsequent analysis.
Survival curves were plotted using Kaplan and Meier method and the survival differences were evaluated using log-rank test. Cox's proportional hazard model was used to evaluate the simultaneous contribution of the following covariables in the overall survival: sex, age, histological grade, and tumor aprataxin levels. Fisher's exact test, Chi-squared test and Mann-Whitney test were used to evaluate the differences between clinicopathological parameters in patients with high and low aprataxin levels (see Table 1). It was considered that the p values of less than 0.05 indicated statistic significant.

## CC[C@@]1(O)C(=O)OCc2c1cc1n(c2=O)Cc2cc3ccccc3nc2-1 [CPT, camptothecin]
Parental cells DT40
  apoptosis induction: modest apoptosis induction
[1]
  apoptosis induction / sensitization to CPT: significantly sensitized; also recorded: significantly increased apoptosis induction
[2]
  CPT resistant phenotype after reintroduction of APTX: completely reestablished the CPT resistant phenotype; also recorded: fully reestablished the resistant phenotype

## CCc1c2c(nc3ccc(OC(=O)N4CCC(N5CCCCC5)CC4)cc13)-c1cc3c(c(=O)n1C2)COC(=O)[C@]3(O)CC [irinotecan]
[3]
  Overall survival median: 19 months
[3]; Low aprataxin patients
  Overall survival median: 36.7 months
[3]; Total patients
  Overall survival median: 26.3 months
[3]; high vs absent/low aprataxin, 95% CI 1.21-3.63, log-rank p=0.008
  hazard ratio, overall survival: 2.1
[3]; moderate/high vs absent/low aprataxin, 95% CI 1.04-2.29, log-rank p=0.03
  hazard ratio, time to progression: 1.5
[3]; patients with absence or low aprataxin levels
  time to progression (TTP) median: 9.2 months
[3]; patients with moderate or high tumor aprataxin levels
  time to progression (TTP) median: 5.5 months

From US9028831B2, “Markers for selecting personalized therapies for the treatment of cancer” (Fundació Institut de Recerca Hospital Universitari Vall …, priority 2009, dated 2015)
